Structures are written as SMILES. Converted amounts (≈) assume the structure as drawn.

One may read the IC50 as the concentration at which inhibition is half-maximal. High values mean lower potency, low ones higher potency.

For one assay, the system named is SW480. The assay is described as follows: Antiproliferative activity against human SW480 cells after 48 hrs by MTT assay. As to conditions: SW480, 48 h. The class given is functional, cell-based. (Tetrazolium dyes change colour on reduction, which living cells bring about.)
For assay [1], the system named is HepG2. The experiment in a line: Antiproliferative activity against human HepG2 cells after 48 hrs by MTT assay. The class given is functional, cell-based. To be noted: HepG2, 48 h.
The next assay deals with MCF7. The assay is described as follows: Antiproliferative activity against human MCF7 cells after 48 hrs by MTT assay. To be noted: MCF7, 48 h. The class given is functional, cell-based.
Assay [2] relates to HepG2. The experiment in a line: Induction of apoptosis in human HepG2 cells assessed as viable cells at IC50 after 48 hrs by Annexin V-FITC/propidium iodide staining based flow cytometry (reference value: 62.4%). The class given is functional.
Assay [3] relates to HepG2. The experiment in a line: Induction of apoptosis in human HepG2 cells assessed as necrotic cells at IC50 after 48 hrs by Annexin V-FITC/propidium iodide staining based flow cytometry (reference value: 7.77%). The class given is functional. Background: In flow cytometry, cells or beads pass a laser one at a time.
In assay [4] the test system is HepG2. The experiment in a line: Induction of apoptosis in human HepG2 cells assessed as late apoptotic cells at IC50 after 48 hrs by Annexin V-FITC/propidium iodide staining based flow cytometry (reference value: 18.1%). The class given is functional.
The subject of assay [5] is HepG2. The experiment in a line: Induction of apoptosis in human HepG2 cells assessed as early apoptotic cells at IC50 after 48 hrs by Annexin V-FITC/propidium iodide staining based flow cytometry (reference value: 11.7%). The class given is functional.
Assay [6] deals with HepG2. The experiment in a line: Cell cycle arrest in human HepG2 cells assessed as accumulation at G1 phase at IC50 after 48 hrs by propidium iodide staining-based flow cytometry (reference value: 29.83%). The class given is functional.
Assay [7] concerns HepG2. The assay is described as follows: Cell cycle arrest in human HepG2 cells assessed as accumulation at S phase at IC50 after 48 hrs by propidium iodide staining-based flow cytometry (reference value: 51.72%). The class given is functional.
In assay [8] the test system is HepG2. The experiment in a line: Induction of apoptosis in human HepG2 cells assessed as viable cells at 1.2 times IC50 after 48 hrs by Annexin V-FITC/propidium iodide staining based flow cytometry (reference value: 62.4%). The class given is functional.
Assay [9] has as its system HepG2. The assay is described as follows: Cell cycle arrest in human HepG2 cells assessed as accumulation at G1 phase at 1.2 times IC50 after 48 hrs by propidium iodide staining-based flow cytometry (reference value: 29.83%). The class given is functional.
Assay [10] concerns HepG2. The experiment in a line: Induction of apoptosis in human HepG2 cells assessed as late apoptotic cells at 1.2 times IC50 after 48 hrs by Annexin V-FITC/propidium iodide staining based flow cytometry (reference value: 18.1%). The class given is functional.
Assay [11] deals with HepG2. The experiment in a line: Cell cycle arrest in human HepG2 cells assessed as accumulation at G2 phase at IC50 after 48 hrs by propidium iodide staining-based flow cytometry (reference value: 38.82%). The class given is functional.
Assay [12] concerns HepG2. The experiment in a line: Induction of apoptosis in human HepG2 cells assessed as necrotic cells at 1.2 times IC50 after 48 hrs by Annexin V-FITC/propidium iodide staining based flow cytometry (reference value: 7.77%). The class given is functional.
The test system of assay [13] is HepG2. The experiment in a line: Cell cycle arrest in human HepG2 cells assessed as accumulation at S phase at 1.2 times IC50 after 48 hrs by propidium iodide staining-based flow cytometry (reference value: 51.72%). The class given is functional.
Assay [14] deals with HepG2. The assay is described as follows: Induction of apoptosis in human HepG2 cells assessed as early apoptotic cells at 1.2 times IC50 after 48 hrs by Annexin V-FITC/propidium iodide staining based flow cytometry (reference value: 11.7%). The class given is functional.
The subject of assay [15] is HepG2. The assay is described as follows: Cell cycle arrest in human HepG2 cells assessed as accumulation at G2 phase at 1.2 times IC50 after 48 hrs by propidium iodide staining-based flow cytometry (reference value: 38.82%). The class given is functional.

With `Nc1nc(N2CCOCC2)sc1C(=O)/C=C/c1ccc(Br)cc1`, the IC50 in the assay with SW480 was 32.7 µg/mL (≈ 82.9 µM); in the assay with HepG2 [1], more than 50 µg/mL; with MCF7, more than 50 µg/mL.
In the case of `Nc1nc(N2CCCC2)sc1C(=O)/C=C/c1ccc(Cl)cc1`, the IC50 is 19.9 µg/mL (≈ 59.6 µM) in the assay with SW480, 27 µg/mL (≈ 80.9 µM) in the assay on HepG2 [1] and 24 µg/mL (≈ 71.9 µM) with MCF7.
Take `COc1cc([C@@H]2c3cc4c(cc3[C@@H](O[C@@H]3O[C@@H]5CO[C@@H](C)O[C@H]5[C@H](O)[C@H]3O)[C@H]3COC(=O)[C@H]23)OCO4)cc(OC)c1O` [ETOPOSIDE]: the Activity with HepG2 [2] turned out to be 37.1%; in the assay with HepG2 [3], 35.5%; with HepG2 [4], 24.7%; in the assay on HepG2 [5], 2.59%.
On to `Nc1nc(N2CCOCC2)sc1C(=O)/C=C/c1ccccc1`, for which the IC50 is 30.5 µg/mL (≈ 96.7 µM) with SW480, 21.4 µg/mL (≈ 67.9 µM) in the assay on HepG2 [1] and 34.7 µg/mL (≈ 110 µM) with MCF7.
For `Nc1nc(N2CCCC2)sc1C(=O)/C=C/c1ccc([N+](=O)[O-])cc1` the same measures were 22.4 µg/mL (≈ 65 µM), 23.5 µg/mL (≈ 68.2 µM) and 26.3 µg/mL (≈ 76.4 µM).
In the case of `Nc1nc(N2CCCC2)sc1C(=O)/C=C/c1ccc(Br)cc1`, the values for the IC50 in the assay on SW480, in the assay on HepG2 [1] and in the assay on MCF7 were 15.8 µg/mL (≈ 41.8 µM), 30 µg/mL (≈ 79.3 µM) and 41.3 µg/mL (≈ 109 µM), respectively.
As for `Nc1nc(N2CCCCC2)sc1C(=O)/C=C/c1ccc(Br)cc1`, the IC50 is 31.6 µg/mL (≈ 80.5 µM) in the assay with SW480, 17.4 µg/mL (≈ 44.4 µM) with HepG2 [1] and 25.6 µg/mL (≈ 65.3 µM) in the assay on MCF7.
As to `Nc1nc(N2CCCCC2)sc1C(=O)/C=C/c1ccc(Cl)cc1Cl`, the values for the IC50 in the assay on SW480, in the assay on HepG2 [1] and with MCF7 were 36.8 µg/mL (≈ 96.3 µM), 22.9 µg/mL (≈ 59.9 µM) and 25.5 µg/mL (≈ 66.7 µM), respectively.
With `Nc1nc(N2CCCCC2)sc1C(=O)/C=C/c1ccc([N+](=O)[O-])cc1`, the Activity in the assay on HepG2 [6] stood at 47.1%; with HepG2 [7] it was 27.92%; in the assay with HepG2 [2], 46%; in the assay with HepG2 [3] it was 24.2%; in the assay on HepG2 [8] it was 26.1%; in the assay with HepG2 [9], 54.18%. Besides, the Activity with HepG2 [10] came to 47.1%; in the assay with HepG2 [11] it was 30.17%; in the assay on HepG2 [12], 24.2%; with HepG2 [13], 33.47%; in the assay on HepG2 [14], 2.53%; in the assay on HepG2 [4], 27.7%. Moreover, the Activity amounted to 25.23% in the assay with HepG2 [15] and 2.1% in the assay on HepG2 [5]. The IC50 was 25.6 µg/mL (≈ 71.4 µM) in the assay on SW480, 15.4 µg/mL (≈ 43 µM) in the assay on HepG2 [1] and 14.6 µg/mL (≈ 40.7 µM) with MCF7.
On to `Nc1nc(N2CCOCC2)sc1C(=O)/C=C/c1ccc([N+](=O)[O-])cc1`, for which the IC50 in the assay on SW480 was 43.3 µg/mL (≈ 120 µM); in the assay on HepG2 [1], 27.6 µg/mL (≈ 76.6 µM); with MCF7 it was 40 µg/mL (≈ 111 µM).
Consider `Nc1nc(N2CCCCC2)sc1C(=O)/C=C/c1ccc(Cl)cc1`, for which the Activity was found to be 44.47% with HepG2 [6]; 28.24% with HepG2 [7]; 44.3% in the assay on HepG2 [2]; 18.5% in the assay with HepG2 [3]; 44.8% with HepG2 [8]; 48.58% with HepG2 [9]. Further, the Activity is 34.7% with HepG2 [10]; 27.88% in the assay on HepG2 [11]; 17.2% in the assay with HepG2 [12]; 18.26% in the assay on HepG2 [13]; 3.31% in the assay with HepG2 [14]; 34.4% with HepG2 [4]. Moreover, the Activity in the assay on HepG2 [15] is recorded as 37.65%; in the assay on HepG2 [5] it was 2.84%. The IC50 in the assay on SW480 worked out at 29.4 µg/mL (≈ 84.5 µM); in the assay on HepG2 [1] it was 12 µg/mL (≈ 34.5 µM); in the assay with MCF7 it was 19.5 µg/mL (≈ 56.1 µM).
As for `Nc1nc(N2CCCCC2)sc1C(=O)/C=C/c1ccccc1`, the IC50 with SW480 was 28.1 µg/mL (≈ 89.7 µM); with HepG2 [1] it was 16.6 µg/mL (≈ 53 µM); in the assay on MCF7, 22.4 µg/mL (≈ 71.5 µM).
Turning to `Nc1nc(N2CCOCC2)sc1C(=O)/C=C/c1ccc(Cl)cc1Cl`, the IC50 was determined as 33.2 µg/mL (≈ 86.4 µM) in the assay with SW480, 12.8 µg/mL (≈ 33.3 µM) in the assay on HepG2 [1] and 18.6 µg/mL (≈ 48.4 µM) with MCF7.
As to `Nc1nc(N2CCOCC2)sc1C(=O)/C=C/c1ccc(Cl)cc1`, the half-maximal inhibitory concentration (IC50) in the assay with SW480 is 33.4 µg/mL (≈ 95.5 µM); with HepG2 [1] it was 35.8 µg/mL (≈ 102 µM); with MCF7, more than 50 µg/mL.
Consider `Nc1nc(N2CCCC2)sc1C(=O)/C=C/c1ccc(Cl)cc1Cl`, for which the Activity amounted to 22.09% with HepG2 [6]; 14.64% with HepG2 [7]; 44.6% in the assay with HepG2 [2]; 40.8% in the assay on HepG2 [3]; 24.2% in the assay on HepG2 [8]; 27.04% in the assay with HepG2 [9]. Further, the Activity in the assay on HepG2 [10] stood at 44.3%; in the assay on HepG2 [11], 64.84%; in the assay on HepG2 [12], 24.4%; with HepG2 [13], 16.34%; in the assay on HepG2 [14], 7.12%; in the assay on HepG2 [4], 13.2%. Besides, the Activity in the assay on HepG2 [15] stood at 68.37%; in the assay on HepG2 [5], 1.43%. For the same molecule, the IC50 in the assay on SW480 was determined as 18.4 µg/mL (≈ 50 µM); with HepG2 [1], 10.6 µg/mL (≈ 28.8 µM); with MCF7 it was 12.6 µg/mL (≈ 34.2 µM).
`Nc1nc(N2CCCC2)sc1C(=O)/C=C/c1ccccc1`: the concentration for half-maximal inhibition (IC50) in the assay with SW480 is 31.7 µg/mL (≈ 106 µM); in the assay on HepG2 [1], 29.6 µg/mL (≈ 98.9 µM); with MCF7, 21.7 µg/mL (≈ 72.5 µM).
For `COc1ccccc1/C=C/C(=O)c1sc(N2CCCC2)nc1N`, in that order: 17 µg/mL (≈ 51.6 µM), 35.1 µg/mL (≈ 107 µM) and more than 50 µg/mL.

For the origin of these results see ChEMBL document CHEMBL4251651, “Synthesis and biological evaluation of 4-amino-5-cinnamoylthiazoles as chalcone-like anticancer agents” (Eur J Med Chem, 2018).
